Data: article PMC2567432 (PLoS ONE, 2008)
Entries after “also recorded” stand apart in the source; their conditions may differ.

Tests used:
astrocytoma 1321N1 cells [1] = assay: D-lactate release into medium; format: cell-based; conditions: 1321N1, 20 µM curcumin, 24 h; control 34.6±6 µM
Protocol: (§1) Cells were harvested and the specific activity of Glo1 and LDH was determined in the cytosolic extract. (B) Semi-quantitative analysis of protein content as performed by Western blot using specific antibodies against β-actin and Glo1. The blot was developed by chemoluminescense detection. […] Data represent the mean±S.D. of independent experiments (n = 6).
The determination of D-lactate and L-lactate in supernatants of astrocytoma 1321N1 cells was performed by an enzymatic method based on the oxidation of L-lactate and D-lactate to pyruvate by NAD in the presence of L-LDH or D-LDH[63].

astrocytoma 1321N1 cells [2] = assay: Cellular ATP content (CellTiter-Glo), 1321N1; format: cell-based; conditions: 1321N1, 6 h; curcumin 0–100 µM, MGO 0–1000 µM
Protocol: Cellular ATP content was determined using the CellTiter-Glo® Luminescent Cell Viability Assay. Data represent the mean±S.D. of independent experiments (n = 12).
Cell ATP content was determined by means of the CellTiter-Glo® Luminescent Cell Viability Assay according to the manufacturer's instructions (Promega, Madison, USA). […] After 6-h incubation, cells were mixed with test reagents and luminescence was read according to the manufacturer's instructions. A standard curve was prepared from ATP (1 µM to 10 nM) in medium.

[3] = system: prostate cancer PC-3 cells; assay: Cell proliferation WST-1 assay, PC-3; format: cell-based
Protocol: Figure 3 Growth inhibition of different tumor cell lines by polyphenols. […] Following 24-h incubation, cell proliferation was evaluated using the WST-1 assay.
Tumor cells were cultured in RPMI medium containing 10% fetal calf serum (RPMI-FCS) (PC-3, JIMT-1, MDA-MD 231) or in DMEM-FCS (astrocytoma 1321N1 cells) containing penicillin/streptomycin (100 U penicillin/ml; 100 µg streptomycin/ml) at 37°C/5% CO2. Cytosolic protein extracts of tumor cells were prepared using extraction buffer composed of 25 mM Tris, 2 mM EDTA, 10% Glycerol, 1% Triton ×100, 2 mM DTT, 1mM PMSF, pH. 7.0 containing 0.3% protease inhibitor cocktail. Protein content was determined according to Bradford. Specific activity of enzymes analyzed in cell extracts was expressed as U/mg protein.
(§2) Cell proliferation/vitality of tumor cells (96-well plates; 5000 cells/well) and primary human hepatocytes (24-well plates; 0.25×10^6 cells/well) was assayed using the WST-1 assay according to manufacturer's instructions. Trypan blue exclusion was performed by staining cells with 0.4% aqueous trypan blue solution according to the manufacturer's instructions.

1321N1 cells [4] = assay: Glutathione (GSH) level in cytosolic extract, 1321N1; format: cell-based; conditions: 1321N1, 50 µM, 24 h
Protocol: Cells were harvested and GSH concentration was determined in the cytosolic extract. Data represent the mean±S.D. of independent experiments (n = 6).
GSH was determined using DTNB method. Briefly, cytosolic extract of tumor cells were precipitated by 5% sulfosalicylic acid neutralization, aliquots were mixed with DTNB and absorbance was read at 412 nm against a standard solution of GSH.

[5] = system: IL-1β release from LPS-stimulated blood cells; assay: Whole blood assay, LPS-induced IL-1β release (cytometric bead array); format: cell-based; conditions: Homo sapiens; heparinized whole blood, LPS 10 ng/ml, 6 h, 37°C
Protocol: Figure 2 Effect of polyphenols on IL-1β release from LPS-stimulated blood cells. Heparinized whole blood was stimulated by LPS in the absence or presence of polyphenols at increasing concentrations and incubated for 6 h at 37°C with 5% CO2. (A) Released IL-1β as measured in cell supernatants. Samples without additives but LPS were set at 100%. (B) The calculated […] values of the respective polyphenols. Data represent mean±S.D. of independent experiments (n = 6).
Whole blood assay was performed as previously described. Accordingly, LPS (10 ng/ml), test substances and 200 µl heparinized human blood of healthy donors, obtained from the blood bank of the University of Leipzig, were co-incubated with serum-free medium (RPMI-SF, 1 ml final volume) in 24-well culture plates for 6 h at 37°C with 5% CO2. Samples were removed, centrifuged at 2000×g for 10 min and supernatants were stored at −20°C until assaying for inflammatory cytokines.
Assessment of cytokine levels in supernatants of human blood cell cultures was accomplished using Cytometric Bead Array (CBA™, BD Biosciences, San Jose, U.S.A). The procedure was carried out according to the manufacturer's instruction. Fluorescence measurement and analysis were performed using a FACSCalibur and the CellQuest software (BD Biosciences).

1321N1 cells [6] = assay: L-LDH release into cell supernatants; format: cell-based; conditions: 50 µM
Protocol: Tumor cells were cultured and treated as mentioned in Fig. 3. (A) LDH activity was measured in cell supernatants. (B) Cell vitality as assayed by the trypan blue exclusion test. Data represent the mean±S.D. of independent experiments (n = 6).
LDH activity was spectrophotometrically assayed in the cytosolic extract or in the of cell cultures by adding aliquots to 1 ml reaction buffer (50 mM Na2HPO4, pH 7.0, 0.15 mM NADH, and 0.3 mM pyruvate). Enzyme activity was recorded at 340 nm.

[7] = system: primary human hepatocytes; assay: Vitality of primary human hepatocytes (WST-1); format: cell-based; conditions: 24-h incubation, increasing concentrations
Protocol: Apoptosis/necrosis was evaluated using annexin V-5-fluorescein isothiocyanate (FITC)/propidium iodine (PI) staining followed by flow cytometric analysis. […] The proportion of dead cells (a: annexin V-FITC^−/PI^+), late apoptotic/necrotic cells (b: annexin V-FITC^+/PI^+), non-apoptotic cells (c: annexin V-FITC^−/PI^−) and early apoptotic cells (d: annexin V-FITC^+/PI^−). (B) Results of 3 independent experiments. […] Data represent the mean±S.D. of three independent experiments.
Primary human hepatocytes were isolated and cultivated in serum-free William Medium E [59]. Tissue samples from human liver resection were obtained from patients undergoing partial hepatectomy for metastatic liver tumor of colorectal cancer. Experimental procedures were performed according to the guidelines of the charitable state controlled foundation (Human Tissue and Cell Research), with the informed patient's consent approved by the local ethical committee.
as §2

Glo1 in JIMT-1 cells = assay: Glo1 protein content by Western blot; format: cell-based, human; conditions: JIMT-1, 24 h
Protocol: as §1
An amount of 20 µg to 40 µg of cytosolic extract was loaded to SDS-pore gradient gels (4 to 20%) and run under reducing conditions. Proteins were blotted to cellulose nitrate membranes (Whatman Schleicher & Schuell, Dassel, Germany) and Glo1 was detected by anti-Glo1 monoclonal antibodies (1 µg/ml) (BioMac, Leipzig, Germany) in combination with goat anti-mouse Ig-HRP (1∶1000) (Dako, Hamburg, Germany). For comparison, β-actin was analyzed using rabbit anti-β-actin Ig (1∶2000) (Acris, Hiddenhausen, Germany) in conjunction with HRP-labeled goat anti-rabbit Ig (Dianova, Hamburg, Germany). Band visualization was performed by chemiluminescence detection (Boehringer, Mannheim, Germany).

SMILES: COc1cc(C=CC(=O)CC(=O)C=Cc2ccc(O)c(OC)c2)ccc1O [curcumin, 1,7-bis(4-hydroxy-3-methoxyphenyl)-1,6-heptadiene-3,5-dione]
- D-lactate concentration in the medium (astrocytoma 1321N1 cells [1]): 22 ± 1.9 µM
- cellular ATP content (astrocytoma 1321N1 cells [2]): decreased cellular ATP in a concentration-dependent manner
- effect on PC-3 cells at 100 µM ([3]; 100 µM, 24 h, morphology lost, necrotic cell death): toxic effect
- concentration giving strong anti-proliferative effects ([3]; PC-3, 24 h, WST-1): above 50 µM
- GSH diminished by (1321N1 cells [4]): approximately 20%
- IC50 [5]: 7.9 µM
- L-LDH release (1321N1 cells [6]; 6-h incubation): not significantly increased
- LDH release (1321N1 cells [6]; 24-h incubation): increased
- cell vitality of primary human hepatocytes [7]: no effect; also recorded: not affected
- Glo1 protein content (Western blot) (Glo1 in JIMT-1 cells): no alteration
